Where a SMILES comes first, the peptide text is derived from it. Bridges are numbered along the chain shown (N, C = ends).
What was measured:
[1] = target: T1, membrane preparation from rhesus monkey lung (Macaca mulatta, UniProt F7HE88); assay: cGMP stimulation of rhesus lung membranes; type: biochemical; settings: FIG. 13, rhesus monkey lung membranes
T1 construct: from tissue; host or cells: rhesus monkey lung membranes
T1 sequence (F7HE88 33-1061): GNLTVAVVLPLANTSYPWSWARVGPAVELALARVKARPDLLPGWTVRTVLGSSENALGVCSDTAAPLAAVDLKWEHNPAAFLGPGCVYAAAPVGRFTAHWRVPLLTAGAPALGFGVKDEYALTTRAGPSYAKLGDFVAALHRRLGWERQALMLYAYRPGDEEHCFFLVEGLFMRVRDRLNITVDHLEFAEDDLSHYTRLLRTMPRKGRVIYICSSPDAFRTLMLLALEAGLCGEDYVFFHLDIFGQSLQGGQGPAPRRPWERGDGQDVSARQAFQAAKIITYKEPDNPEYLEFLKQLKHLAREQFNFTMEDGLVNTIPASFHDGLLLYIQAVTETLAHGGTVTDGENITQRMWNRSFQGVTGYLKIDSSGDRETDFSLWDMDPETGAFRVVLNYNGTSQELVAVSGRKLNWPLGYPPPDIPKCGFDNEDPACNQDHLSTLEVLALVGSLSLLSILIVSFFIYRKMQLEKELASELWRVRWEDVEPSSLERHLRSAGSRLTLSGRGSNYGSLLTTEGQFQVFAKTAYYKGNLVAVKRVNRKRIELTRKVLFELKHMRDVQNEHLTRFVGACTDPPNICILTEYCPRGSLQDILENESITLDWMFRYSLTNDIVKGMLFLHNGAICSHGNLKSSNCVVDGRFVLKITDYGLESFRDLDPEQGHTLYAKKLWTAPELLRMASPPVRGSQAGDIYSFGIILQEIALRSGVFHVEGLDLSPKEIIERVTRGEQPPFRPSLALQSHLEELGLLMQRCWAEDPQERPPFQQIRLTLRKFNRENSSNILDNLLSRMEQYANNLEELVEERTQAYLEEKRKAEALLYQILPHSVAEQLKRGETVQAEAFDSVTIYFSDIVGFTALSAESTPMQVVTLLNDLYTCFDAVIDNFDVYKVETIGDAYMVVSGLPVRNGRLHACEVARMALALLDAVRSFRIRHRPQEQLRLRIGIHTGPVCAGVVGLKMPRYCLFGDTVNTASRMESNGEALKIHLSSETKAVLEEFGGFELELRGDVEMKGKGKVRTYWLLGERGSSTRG
Procedure: For preparation of membranes from Rhesus monkey tissues, frozen tissue was placed between parafilm and broken up into pieces by hitting with a hammer. Tissue was transferred to a 125 mL polypropylene tube containing 100 mL of ice-cold buffer #1 (50 mM HEPES, pH 7.4, 1 mM EDTA, 250 mM sucrose, 0.7 mg/mL pepstatin A, 0.5 mg/mL leupeptin, 1 mM PMSF, and 1 mM phosphoramidon). Tissue was homogenized with a Brinkman polytron on a setting of 5 two times for 10 sec. The sample was placed on ice between homogenizations. 11 mL of 30 mM MgCl2/100 mM NaCl containing 1 mM phosphoramidon was added to the homogenate. The homogenate was spun at 400×g for 10 min at 4° C. in a HB-4 rotor. The supernatant was transferred to another tube and spun as above. The supernatant was passed though four layers of sterile gauze then centrifuged at 30,000×g for 20 min at 4° C. in a 60 Ti rotor. The pellet was resuspended in 3-5 mL of buffer #2 (50 mM HEPES, pH 7.4, 0.1 mM EDTA, 5 mM MgCl2, 100 mM NaCl, 0.7 mg/mL pepstatin A, 0.5 mg/mL leupeptin, 1 mM PMSF, and 1 mM phosphoramidon), using a 7 mL Wheaton Dounce with a B pestle. Aliquots were stored at −80° C. […]
Data analysis. The competition binding curves and cGMP production dose responses were analyzed by the four-parameter logistic equation with the KaleidaGraph™ program (Synergy Software, PA) to obtain estimates of the IC50 or EC50 values. […]

rhesus monkeys = type: in vivo; settings: rhesus monkey
Procedure: Administration of Natriuretic Peptides to Rhesus Monkeys. […] A second iv catheter was inserted for fluid administration and blood withdrawal. A urinary catheter was inserted and urine flow monitored at 10 minute intervals. Urine output and blood withdrawal volumes were replaced by intravenous administration of equal volumes of equal parts of one-half normal saline and 5% (W/V) dextrose in water (D5W). […] Every ten minutes, urine, if present, was collected, the volume recorded and analyzed for sodium and potassium content.

Row | Infusion rate at which dosing was discontinued because of hypotension (rhesus monkeys; in vivo) | SMILES | Potency in stimulation of cGMP production compared with rat ANP [1] | Urine flow, potassium excretion and sodium excretion (rhesus monkeys; 7.5 ng/kg/min 60-minute infusion) | Potassium excretion (rhesus monkeys; 25 ng/kg/min infusion) | Sodium excretion above baseline (rhesus monkeys; 25 ng/kg/min infusion) | Urine flow above baseline (rhesus monkeys; 25 ng/kg/min infusion) | Systolic arterial pressure (rhesus monkeys; escalating iv infusion from 7.5 ng/kg/min)
1 |  | CC[C@H](C)[C@@H]1NC(=O)[C@H](CCCNC(=N)N)NC(=O)[C@H](CC(=O)O)NC(=O)[C@H]([C@@H](C)CC)NC(=O)[C@H](CO)NC(=O)CNC(=O)[C@H]([C@@H](C)O)NC(=O)[C@H](Cc2ccccc2)NC(=O)[C@@H](NC(=O)[C@H](CO)NC(=O)[C@H](CO)NC(=O)[C@H](CCCNC(=N)N)NC(=O)[C@H](CCCNC(=N)N)NC(=O)[C@H](CC(C)C)NC(=O)[C@H](CO)NC(=O)[C@H](CCCNC(=N)N)NC(=O)[C@@H]2CCCN2C(=O)[C@H](C)NC(=O)[C@@H](N)[C@@H](C)O)CSSC[C@@H](C(=O)N[C@@H](CC(N)=O)C(=O)N[C@@H](CO)C(=O)N[C@@H](Cc2ccccc2)C(=O)N[C@@H](CCCNC(=N)N)C(=O)N[C@@H](Cc2ccc(O)cc2)C(=O)O)NC(=O)CNC(=O)[C@H](CC(C)C)NC(=O)CNC(=O)[C@H](CO)NC(=O)[C@H](CCC(N)=O)NC(=O)[C@H](C)NC(=O)[C@H](CCCNC(=N)N)NC1=O [ANF 76] (H-TAPRSLRRSSCFTGSIDRIRAQSGLGCNSFRY-OH; disulfide 11-27; C-terminus assumed) | more potent than rat ANP |  |  |  |  | 
2 | 25 ng/kg/min | CC[C@H](C)[C@@H]1NC(=O)[C@H](CCCNC(=N)N)NC(=O)[C@H](CC(=O)O)NC(=O)[C@H]([C@@H](C)CC)NC(=O)[C@H](CO)NC(=O)CNC(=O)[C@H]([C@@H](C)O)NC(=O)[C@H](Cc2ccccc2)NC[C@@H](NC(=O)[C@H](CO)NC(=O)[C@H](CO)NC(=O)[C@H](CCCNC(=N)N)NC(=O)[C@H](CCCNC(=N)N)NC(=O)[C@H](CC(C)C)NC(=O)[C@@H](N)CO)CSSC[C@@H](C(=O)N[C@@H](CC(N)=O)C(=O)N[C@@H](CO)C(=O)N[C@@H](Cc2ccccc2)C(=O)N[C@@H](CCCNC(=N)N)C(=O)N[C@@H](Cc2ccc(O)cc2)C(=O)O)NC(=O)CNC(=O)[C@H](CC(C)C)NC(=O)CNC(=O)[C@H](CO)NC(=O)[C@H](CCC(N)=O)NC(=O)[C@H](C)NC(=O)[C@H](CCCNC(=N)N)NC1=O [ANF 84] | more potent than rat ANP | began to rise in parallel at the beginning of the 7.5 ng/kg/min infusion, but returned to baseline by 60 minutes | remained at slightly-elevated levels | ~100 fold | approximately 10 fold | began to gradually decline

Source: patent US6525022B1, “Receptor specific atrial natriuretic peptides” (Genentech, Inc., priority 1993, dated 2003)
